According to US9493435B2, “IRE-1α inhibitors” (MannKing Corporation, priority 2009, dated 2016):

What was measured:
[1] = system: IRE-1α-mediated XBP-1 splicing in human myeloma MM.1s cells; assay: Cellular XBP-1 splicing assay in myeloma cells (RT-PCR); format: cell-based; details: Homo sapiens, MM1.S; average EC50, endogenous XBP-1 splicing in myeloma cells, DTT stress
Experimental: After an additional 45 minutes (2 hours total) with compound and DTT, the cells are harvested with TRIZOL® (a mono-phasic solution of phenol and guanidine isothiocyanate), and total RNA is prepared as directed by the manufacturer (Invitrogen). Human XBP-1 is amplified by RT-PCR with the following primers, which flank the 26 base unconventional intron excised by IRE-1α:
RT-PCR of unstressed (U) cells then generates the upper band. When cells are stressed (S) with the endoplasmic reticulum (ER) stressing agent DTT, IRE-1α is activated due to accumulating unfolded protein and the resulting RT-PCR product is 26 base pairs shorter.
Compounds which pass specificity assays are assayed for cellular EC50 using endogenous XBP-1 splicing in myeloma cells. XBP-1 is regulated through the excision of a 26 nucleotide intron from the XBP-1 mRNA by the highly specific endoribonuclease activity of IRE-1α. […] This splicing event is used to measure IRE-1α activity on XBP-1 mRNA in cells and tissues.
Briefly, compounds are incubated in the presence or absence of an ER stress agent (e.g., DTT), and the ratio of XBP-1u (unspliced) to XBP-1s (spliced) is quantified by RT-PCR.

[2] = target: human IRE-1α (GST-IRE-1α) (Homo sapiens (Human), UniProt O75460); assay: IRE-1α assay (cleavage of mini-XBP-1 mRNA stem-loop substrate); format: biochemical; details: average IC50 for inhibition of IRE-1α in vitro
Sequence of human IRE-1α (GST-IRE-1α) (O75460 19-977): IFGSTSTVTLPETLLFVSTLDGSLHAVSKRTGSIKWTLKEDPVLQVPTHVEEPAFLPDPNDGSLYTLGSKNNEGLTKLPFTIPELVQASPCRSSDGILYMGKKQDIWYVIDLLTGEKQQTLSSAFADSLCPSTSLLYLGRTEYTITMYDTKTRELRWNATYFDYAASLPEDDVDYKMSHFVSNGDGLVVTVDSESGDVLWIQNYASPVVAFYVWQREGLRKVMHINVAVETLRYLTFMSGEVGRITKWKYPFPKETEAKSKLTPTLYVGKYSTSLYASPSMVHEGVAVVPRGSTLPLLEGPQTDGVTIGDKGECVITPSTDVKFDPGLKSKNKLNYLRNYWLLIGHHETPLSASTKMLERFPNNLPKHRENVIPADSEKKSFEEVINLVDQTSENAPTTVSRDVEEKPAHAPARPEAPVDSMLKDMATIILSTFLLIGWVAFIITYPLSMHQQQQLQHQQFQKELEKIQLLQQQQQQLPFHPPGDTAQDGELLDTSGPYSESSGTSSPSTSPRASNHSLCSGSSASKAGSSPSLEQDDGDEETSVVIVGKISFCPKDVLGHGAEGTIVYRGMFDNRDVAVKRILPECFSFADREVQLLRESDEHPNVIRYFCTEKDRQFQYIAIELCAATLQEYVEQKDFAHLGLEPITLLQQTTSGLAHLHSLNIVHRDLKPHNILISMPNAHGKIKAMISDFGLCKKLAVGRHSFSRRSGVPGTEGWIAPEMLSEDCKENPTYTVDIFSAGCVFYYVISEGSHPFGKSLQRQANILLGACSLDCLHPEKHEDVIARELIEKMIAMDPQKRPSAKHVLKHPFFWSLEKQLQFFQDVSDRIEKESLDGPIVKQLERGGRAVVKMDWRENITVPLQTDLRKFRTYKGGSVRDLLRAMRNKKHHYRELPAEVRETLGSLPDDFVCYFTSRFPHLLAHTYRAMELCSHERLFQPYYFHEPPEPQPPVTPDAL
Experimental: A fusion protein comprising glutathione S transferase (GST) and human IRE-1α (GST-IRE-1α) obtained from a 500 ml baculovirus-infected insect cell culture can be used to measure IRE-1α activity in vitro. Five μl of a reaction mixture comprising 1× reaction buffer (5× reaction buffer is 100 mM Hepes pH 7.5, 250 mM KOAc, 2.5 mM MgCl2), 3 mM DTT, and 0.4% polyethylene glycol water is added to each well of 384 well plates. Twenty-five nanoliters of a 1 mM test compound solution are added to test wells. […] Negative control wells contain only reaction mixture and test compound. After spinning the plates at 1200 rpm for 30 seconds, 3 μl of an IRE-1α human mini-XBP-1 mRNA stem-loop substrate [NT] ID NO:1), labeled with the fluorescent dye Cy5 at the [NT] end, are added to each well of a control plate. The plates are again spun at 1200 rpm for 30 seconds. […] The plates are covered with lids and incubated for one hour at 30° C. The plates are then transferred to an […] microplate reader. Data is analyzed using data analysis software, and the percent activity of IRE-1α is calculated.

Structure (SMILES) | EC50 [1] | IC50 [2]
CN1CCN(C(=O)c2cncc(-c3ccc4c(C=O)c(O)ccc4c3)c2)CC1 [Compound 67] | < 10000 nM | < 1000 nM
CN1CCCC(CNC(=O)c2ccc(-c3ccc4c(C=O)c(O)ccc4c3)s2)C1 (stereo not drawn) [Compound 69] | < 10000 nM | < 100 nM
O=Cc1c(O)ccc2cc(-c3ccc(C(=O)NCCN4CCOCC4)o3)ccc12 [Compound 71] | < 10000 nM | < 100 nM
CN(C)CCNC(=O)c1ccc(-c2ccc3c(C=O)c(O)ccc3c2)s1 [Compound 72] | < 10000 nM | < 100 nM
O=Cc1c(O)ccc2cc(-c3ccc(C(=O)NC4CCNC4)s3)ccc12 (stereo not drawn) [Compound 73] | < 10000 nM | < 100 nM
CN(C)CCCNC(=O)c1ccc(-c2ccc3c(C=O)c(O)ccc3c2)s1 [Compound 74] | > 10000 nM | < 1000 nM
O=Cc1c(O)ccc2cc(-c3ccc(C(=O)N4CC5CC4CN5)s3)ccc12 (stereo not drawn) [Compound 75] | < 10000 nM | < 100 nM
CN1CCN(C(=O)c2coc(-c3ccc4c(C=O)c(O)ccc4c3)n2)CC1 [Compound 76] | < 10000 nM | < 1000 nM
O=Cc1c(O)ccc2cc(-c3ccc(C(=O)NCC4CCCCN4)o3)ccc12 (stereo not drawn) [Compound 77] | < 10000 nM | > 1000 nM
CN1CCCC(NC(=O)c2ccc(-c3ccc4c(C=O)c(O)ccc4c3)s2)C1 (stereo not drawn) [Compound 78] | < 10000 nM | < 100 nM
CN1CCC(NC(=O)c2ccc(-c3ccc4c(C=O)c(O)ccc4c3)s2)C1 (stereo not drawn) [Compound 79] | < 10000 nM | < 100 nM
CN1CCN(c2ncc(-c3ccc4c(C=O)c(O)ccc4c3)cn2)CC1 [Compound 80] | < 10000 nM | < 100 nM
O=Cc1c(O)ccc2cc(N3CCN(c4ccccn4)CC3)ccc12 [Compound 81] | > 10000 nM | > 1000 nM
O=Cc1c(O)ccc2cc(N3CCC(N4CCOCC4)CC3)ccc12 [Compound 82] | < 10000 nM | < 1000 nM
CC(=O)N1CCN(c2ccc3c(C=O)c(O)ccc3c2)CC1 [Compound 83] | > 10000 nM | < 1000 nM
CC(=O)NC1CCN(c2ccc3c(C=O)c(O)ccc3c2)CC1 [Compound 84] | > 10000 nM | < 1000 nM
CN(C)C1CCN(c2ccc3c(C=O)c(O)ccc3c2)CC1 [Compound 85] | < 10000 nM | < 10 nM
CN1CCN(C2CCN(c3ccc4c(C=O)c(O)ccc4c3)CC2)CC1 [Compound 86] | < 10000 nM | < 10 nM
CN1CCN(c2ccc3ccc(O)c(C=O)c3c2)CC1 [Compound 87] | > 10000 nM | > 1000 nM
O=Cc1c(O)ccc2ccc(N3CCOCC3)cc12 [Compound 88] | < 10000 nM | > 1000 nM

Structure (SMILES) | EC50 [1] | IC50 [2]
CN1CCN(C2CCN(c3ccc4ccc(O)c(C=O)c4c3)CC2)CC1 [Compound 89] | > 10000 nM | > 1000 nM
O=Cc1c(O)ccc2ccc(N3CCC(N4CCOCC4)CC3)cc12 [Compound 90] | < 10000 nM | > 1000 nM
CN1CCN(C(=O)C2CCN(c3ccc4c(C=O)c(O)ccc4c3)CC2)CC1 [Compound 91] | > 10000 nM | > 1000 nM
CS(=O)(=O)N1CCN(c2ccc3c(C=O)c(O)ccc3c2)CC1 [Compound 92, 2-Hydroxy-6-(4-methanesulfonyl-piperazin-1-yl)-naphthalene-1-carbaldehyde] | > 10000 nM | > 1000 nM
CS(=O)(=O)NC1CCN(c2ccc3c(C=O)c(O)ccc3c2)CC1 [Compound 93] | < 10000 nM | > 1000 nM
CS(=O)(=O)NC1CCCN(c2ccc3c(C=O)c(O)ccc3c2)C1 (stereo not drawn) [Compound 94] | > 10000 nM | > 1000 nM
O=Cc1c(O)ccc2cc(N3CCN(Cc4ccccc4)CC3)ccc12 [Compound 95] | > 10000 nM | > 1000 nM
O=Cc1c(O)ccc2cc(N3CCN(Cc4ccccn4)CC3)ccc12 [Compound 96, 2-Hydroxy-6-(4-pyridin-2-ylmethyl-piperazin-1-yl)-naphthalene-1-carbaldehyde] | > 10000 nM | 1000 nM
O=Cc1c(O)ccc2cc(N3CCC(NCc4ccccc4)CC3)ccc12 [Compound 97] | > 10000 nM | < 1000 nM
O=Cc1c(O)ccc2cc(N3CCCC(NCc4ccccc4)C3)ccc12 (stereo not drawn) [Compound 98] | < 10000 nM | 1000 nM
CC(C)N1CCN(c2ccc3c(C=O)c(O)ccc3c2)CC1 [Compound 99] | < 10000 nM | > 1000 nM
O=Cc1c(O)ccc2cc(N3CCN(Cc4cccnc4)CC3)ccc12 [Compound 100] | > 10000 nM | < 1000 nM
O=Cc1c(O)ccc2cc(-c3ccc(C(=O)N4CCOCC4)cn3)ccc12 [Compound 101] | > 10000 nM | < 1000 nM
O=Cc1c(O)ccc2cc(N3CCN(c4cccnc4)CC3)ccc12 [Compound 103] | > 10000 nM | > 1000 nM
O=Cc1c(O)ccc2ccc(N3CCCC3)cc12 [Compound 104] | > 10000 nM | > 1000 nM
COCc1cn(-c2ccc3c(C=O)c(O)ccc3c2)nn1 [Compound 105] | < 10000 nM | < 1000 nM
CN(C)C1CCN(c2ccc3c(C=O)c(O)ccc3c2)C1 (stereo not drawn) [Compound 106] | > 10000 nM | > 1000 nM
O=Cc1c(O)ccc2cc(N3CCC(N4CCOCC4)C3)ccc12 (stereo not drawn) [Compound 107] | > 10000 nM | > 1000 nM
O=Cc1c(O)ccc2cc(N3CCCC(NCc4ccccn4)C3)ccc12 (stereo not drawn) [Compound 108] | > 10000 nM | > 1000 nM
Cc1nc(-c2ccc3c(C=O)c(O)ccc3c2)sc1C(=O)N1CCOCC1 [Compound 109] | < 10000 nM | < 100 nM

Structure (SMILES) | EC50 [1] | IC50 [2]
O=Cc1c(O)ccc2cc(N3CCC(C(=O)N4CCOCC4)CC3)ccc12 [Compound 110] | > 10000 nM | < 1000 nM
O=Cc1c(O)ccc2cc(N3CCC(C(=O)N4CCOCC4)C3)ccc12 (stereo not drawn) [Compound 111, 2-Hydroxy-6-[3-(morpholine-4-carbonyl)-pyrrolidin-1-yl]-naphthalene-1-carbaldehyde] | > 10000 nM | < 1000 nM
CN1CCN(C(=O)C2CCN(c3ccc4c(C=O)c(O)ccc4c3)C2)CC1 (stereo not drawn) [Compound 112] | < 10000 nM | < 1000 nM
O=Cc1c(O)ccc2cc(N3CCN(C4CCNCC4)CC3)ccc12 [Compound 113] | > 10000 nM | > 1000 nM
O=Cc1c(O)ccc2cc(N3CCC(NCc4ccccn4)CC3)ccc12 [Compound 114] | > 10000 nM | < 1000 nM
O=Cc1c(O)ccc2cc(N3CCC(NCc4cccnc4)CC3)ccc12 [Compound 116] | < 10000 nM | > 1000 nM
O=Cc1c(O)ccc2cc(N3CCC(N4CCCCC4)C3)ccc12 (stereo not drawn) [Compound 117] | < 10000 nM | < 1000 nM
CN1CCN(C2CCN(c3ccc4c(C=O)c(O)ccc4c3)C2)CC1 (stereo not drawn) [Compound 118] | < 10000 nM | > 1000 nM
CN1CCN(c2nc(-c3ccc4c(C=O)c(O)ccc4c3)cs2)CC1 [Compound 120] | 10000 nM | < 1000 nM
CN1CCN(c2ncc(-c3ccc4c(C=O)c(O)ccc4c3)s2)CC1 [Compound 121] | < 10000 nM | < 100 nM
CNC1CCN(c2ccc3c(C=O)c(O)ccc3c2)C1 (stereo not drawn) [Compound 122] | < 10000 nM | > 1000 nM
O=Cc1c(O)ccc2cc(-c3ccc(C(=O)N4CCCC4)nc3)ccc12 [Compound 124] | < 10000 nM | < 1000 nM
COCCNCCNC(=O)c1ccc(-c2ccc3c(C=O)c(O)ccc3c2)cn1 [Compound 125] | < 10000 nM | < 100 nM
O=Cc1c(O)ccc2cc(-c3ccc(C(=O)NCCN4CCOCC4)nc3)ccc12 [Compound 126] | < 10000 nM | < 100 nM
CNC(=O)C1CCN(c2ccc3c(C=O)c(O)ccc3c2)C1 (stereo not drawn) [Compound 127] | > 10000 nM | < 1000 nM
CN(C)C(=O)C1CCN(c2ccc3c(C=O)c(O)ccc3c2)C1 (stereo not drawn) [Compound 128] | > 10000 nM | > 1000 nM
O=Cc1c(O)ccc2cc(N3CCC(C(=O)N4CCCCC4)C3)ccc12 (stereo not drawn) [Compound 129] | > 10000 nM | > 1000 nM
CNC(=O)C1CCN(c2ccc3ccc(O)c(C=O)c3c2)C1 (stereo not drawn) [Compound 131] | > 10000 nM | > 1000 nM
CN(C)C(=O)C1CCN(c2ccc3ccc(O)c(C=O)c3c2)C1 (stereo not drawn) [Compound 132] | > 10000 nM | > 1000 nM
O=Cc1c(O)ccc2ccc(N3CCC(C(=O)N4CCCCC4)C3)cc12 (stereo not drawn) [Compound 133] | > 10000 nM | > 1000 nM
